“Also recorded” adds a separate entry of the source.
What was measured:
[1] = test system: herpes ophthalmicus and herpes keratitis; experiment: Example 8: herpes ophthalmicus and herpes keratitis patient; format: in vivo, human; details: dronabinol 0.5 mg twice daily to both ears
Text: A patient experienced an episode of herpes ophthalmicus and herpes keratitis in September 2003, resulting in thinning melt of the left cornea, loss of vision, inflammation, neuralgia, and a rash of blisters to the left forehead, upper nose, and temple with a subsequent full left-face palsy droop, which required multiple cosmetic surgical procedures to provide some symmetry to the face and partial closure to the eyelids of the left eye.
No corneal graft to the left eye could be attempted due to recurrent thinning of the full cornea and inflammation of the vasculature. The patient was treated with ophthalmic prednisolone, topical and systemic antivirals, topical antibiotics, bandage lens, punctal plugs, and over-the-counter artificial tears and gels. This treatment regimen was continued until January 2011 when the cornea thinned to probable melt-through, necessitating corneal patch surgery. Just prior to the surgery, the patient's vision was measured at 20/2000, or finger vision.
The patient started applying 1% progesterone to their forehead twice daily just before corneal patch surgery planned for January 2011. The dose of progesterone was approximately 1 mg per application.
In September 2014, corneal tissue had sufficiently epithelialized at the perimeter to attempt a corneal graft, which was successfully completed. Progesterone 1% was applied daily to the forehead post-surgery. Within 9 months vision was restored to best correct vision pinhole 20/50.
In February 2015, the patient's visual acuity decreased as a result of the rejection of cells at the lower part of the graft. Moderate central staining continued to persist in a band where eyelids could not close. Intraocular pressure (TOP) in the left eye rose to 22 mmHg. The patient was placed on a treatment regimen that included Prednisolone Forte 6× plus Restasis for rejection 2× daily and oral valacycovir, together with mechanically taping the eyelid closed at night.
In May 2016, the patient initiated a course of twice daily dronabinol treatment, 0.5 mg each dose, to both ears. Through July, stabilization was achieved, and all other medications were discontinued. […] Visual acuity improved to 20/40.

[2] = test system: Parkinson's disease symptoms; experiment: Example 1: Parkinson's disease patient, dermal application to forehead and ear conchae
Description: A person was diagnosed with the early stages of Parkinson's disease in December of 2014. Their symptoms included tremors in the hands, impaired short term memory, slow and uncontrolled rigid movements while walking and eating, and declining ocular blink function. The patient also had dry eyes with hyper-tearing, burning, and itching.
The patient was also treated with progesterone 1% on the forehead initially once daily beginning in March 2015. […] The progesterone was applied as needed for about a year.
Instead of the prescribed regimen, the patient began dermal application of dronabinol 1.25 mg 2 times daily to three sites: (i) the forehead, (ii) the concha of the left ear, and (iii) the concha of the right ear. Each dose of 1.25 mg was divided equally between the three application sites. This treatment regimen began Friday Jun. 10, 2016 concurrent with the discontinuation of rasagiline.
In February 2017, the patient, who suffers from debilitating moderate spinal stenosis, started taking Azilect (rasagiline) and carbidopa-levodopa to improve their walking and flexibility. […] The patient decided that, together with the prescribed medications, they would switch from dronabinol to topical testosterone gel applied to the forehead and ear conchae to see if this would impact their longstanding low testosterone levels.
In March 2017, topical testosterone gel application was instituted as an adjunct to is the prescribed Azilect and carbidopa-levodopa.
The patient voluntarily stopped topical testosterone for 3 weeks in June 2017. […] At the end of 3 weeks, topical testosterone was re-instituted as an adjunct to the prescribed medications.

[3] = test system: essential tremor; experiment: Example 7: essential tremor subject with contact lens discomfort; format: in vivo, human
Description: A person developed persistent right hand tremors of a kinetic (non-resting) type that has been continuous over the past 6 years. […] This condition had not worsened over time. […] Initially, their doctor thought that these symptoms were stress related and they have been taking 2.5 mg of escitalopram for over 6 years. […] The subject was not on hormone replacement therapy or any other medication.
Concomitantly, the subject suffered from uncomfortable eyes, with a sticky burning sensation and development of blurred vision after about 5-6 hours of contact lens wear. For the past 3 years, the subject was administered 1% progesterone gel (1 mg per day) by dermal application to the forehead once per night. The progesterone gel prolonged comfortable contact lens wear time with sustained visual acuity from 5-6 hours to greater than 15 hours. […] After 2 years of treatment, the benefits of progesterone dermal application persisted for at least 3 days without treatment. There was no effect of the progesterone on their tremor symptoms.
After allowing for washout of progesterone for 3 days, they began forehead application of 0.5-0.75 mg dronabinol once daily at night.
The dronabinol administration regimen was altered by dividing equally the once daily dose of 0.5-0.75 mg dronabinol between the conchae of the left ear, the conchae of the right ear, and the forehead. […] Comfortable contact lens wear, with ease of insertion and removal, and visual acuity extends for 15 hours or more after dronabinol application.
Contact lens comfort wear duration was greater than 15 hours.
In April 2017, the subject, while still being treated with 1% progesterone applied to the forehead, instituted a once-daily low dose topical testosterone applied to the forehead and ear conchae to determine if doing so would produce a beneficial impact on further tremor reduction and in particular essential tremor triggered by caffeine consumption. […] They stopped the treatment to assess whether the tremor would return to pre-testosterone treatment levels. As of August 2017, the subject is without noticeable tremor. The caffeine trigger for tremor onset, which had been recognized throughout all treatments, has not re-appeared since the completion of the 4-week testosterone treatment. The subject continues on low-dose progesterone 1% applied daily to the forehead as the only treatment.

[4] = test system: herpes facial palsy; experiment: Example 9: functional facial motor control in herpes facial palsy; format: in vivo, human
Text: A person had unilateral facial unilateral palsy stemming from 2003 herpes ophthalmicus and herpes keratitis. The left eye lids were unable to close to cover the central cornea without a forceful blink; neither were the lids able to open with the upper lid sagging and without elasticity or muscle control. This static condition was the baseline since the end of 2003 to May 2016, or nearly 13 years.
The left side of the face drooped, the left corner of the mouth drooled, and a noticeable asymmetry presented at rest. The upper lip could only slightly reveal the lowest pat of the upper teeth on the right side. There was minimal functional motor control of facial expression including upper lip. left side brow, eye lids, cheeks to mouth and chin lacked elasticity and functional motor control, leaving face fixed, expressionless, and asymmetrical.
The facial skin sagged as did the eye lids. […] His upper lip was partially frozen on the left side, and drooling was persistent. Lip and mouth expression as in smile was severely restricted.
Beginning in mid-May 2016, the patient began treatment twice daily with dronabinol 2.5 mg in oil, one-third of which was applied equally to the concha of the left ear, to the conchae of the right ear, and to the forehead.

[5] = dronabinol 1.25 mg 2 times daily, forehead and both conchae, two weeks, no other medications
[6] = dronabinol 2.5 mg in oil twice daily divided between both conchae and forehead, 3 months

In the case of `CCCCCc1cc(O)c2c(c1)OC(C)(C)[C@@H]1CCC(C)=C[C@@H]21` [dronabinol, (6aR,10aR)-6a,7,8,10a-tetrahydro-6,6,9-trimethyl-3-pentyl-6H-dibenzo[b,d]-pyran-1-ol], the corneal staining ([1]; May through July 2016) was “improve somewhat, but still moderate”, the graft rejected cells ([1]; May through July 2016) was “the number of rejected cells became fewer” and the visual acuity ([1]; May through July 2016) was 20/40. The “intraocular pressure (printed TOP)” value ([1]; May through July 2016, from 22 mmHg) was 16 mmHg, the “best corrected vision pinhole” value ([1]; beginning of August) was 20/25 and the blink interval ([1]; beginning of August) was “approximately 24 second”. For the same compound, the corneal staining ([1]; beginning of August) was “staining improved to superficial”, the “intraocular pressure (printed TOP) in both eyes” value ([1]; beginning of August) was 18 and the rejection cells ([1]; beginning of August) was “no sign of rejection cells”. For the same compound, the “Keratograph 5M non-invasive tear film break times (NIKBUTs) level” value ([1]; beginning of August, 0 = best) was 0, the stability of improvement ([2]; 3 months of dronabinol to conchae and forehead as sole Parkinson's medication) was “stable at the improved level” and the “speech, thought and social interaction” value ([2]; dronabinol 1.25 mg 2 times daily divided between forehead and concha of both ears, within three days, washing out of rasagiline) was “more fluid speech, less searching for words, fewer thought gaps”. The bodily rigidity [2, 5] was “significantly less bodily rigidity”, the depression [2, 5] was “depression resolved in the absence of antidepressants” and the facial masking [2, 5] was “decreased facial masking and more voluntary facial expressions; also recorded: decrease in facial masking”. For the same compound, the hand tremors [2, 5] was “markedly reduced hand tremors”, the memory function [2, 5] was “much improved memory function” and the “motor skills and coordination” value [2, 5] was “motor skills and coordination improved”. For the same compound, the “postnasal drip, chest cough and asthmatic wheezing” value [2, 5] was “persistent postnasal drip resolved, chest cough and asthmatic wheezing resolved”, the dry eyes ([2]; dronabinol 1.25 mg 2 times daily, forehead and both conchae, within three days) was “dry eyes resolved with no need for artificial tears” and the “improvement of Parkinson's disease symptoms (motor, cognitive, emotional), reported by wife” value ([2]; dronabinol since Jun. 10, 2016 as sole medication, reported Jul. 27, 2016) was 90%. The “cognitive function and other non-motor symptoms during tapering-off” value ([2]; tapering-off of dronabinol, already on Azilect and carbidopa-levodopa) was “rapidly deteriorated”, the adverse events ([2]; throughout low dose neural cranial treatment) was “no adverse events were noted” and the “comfortable contact lens wear duration” value ([3]; 0.5-0.75 mg dronabinol once daily divided between both conchae and forehead) was ≥ 15 h. The hand tremor ([3]; 0.5-0.75 mg dronabinol once daily divided between both conchae and forehead, by the fourth day) was “hand tremor had noticeably reduced”, the hand tremor ([3]; 0.5-0.75 mg dronabinol once daily to forehead only, 2 weeks) was “without impacting their symptoms of hand tremor” and the “reduction of essential tremor from pre-treatment levels, stable new baseline” value ([3]; after discontinuing dronabinol) was “about 50%”. The ocular discomfort ([3]; dronabinol USP 0.5 mg to 0.75 mg in an oil formulation to the forehead, substituted for progesterone) was “the same benefits to ocular discomfort was obtained”, the “tremor amplitude after ceasing treatment” value ([3]; dronabinol ceased for 3 days, right hand) was “about 50 % of pre-treatment level” and the “reduction in essential tremor from pre-treatment baseline” value ([3]; during dronabinol treatment) was 80%. The appetite ([3]; low dose topical dronabinol) was “unwanted increase in appetite”, the “facial droop and drool” value ([4]; 3 months of dronabinol application to the ear conchae) was “droop ad drool significantly resolved” and the “recurrence of facial palsy” value ([4]; after dronabinol was discontinued in August 2016) was “no recurrence of facial palsy”. For the same compound, the “best corrected vision with pinhole” value [4, 6] was 20/25, the conjunctival redness [4, 6] was “improved significantly” and the “control over facial expression muscles” value [4, 6] was “regained control over facial expression muscles”. The early graft rejection [4, 6] was “reversed”, the “eye lid motor control” value [4, 6] was “more motor control over both eye lids” and the “persistent central corneal staining” value [4, 6] was “resolved to a significant degree”. For the same compound, the “tear film breakup time level by Keratograph 5M” value ([4]; dronabinol 2.5 mg in oil twice daily divided between both conchae and forehead, 3 months, 0 = best) was 0.

From US10098895B2, “Treatment of symptoms related to neurodegenerative disorders through pharmacological dermal activation of cranial nerves” (GLIA, LLC, priority 2016, dated 2018)
